pEC50, pIC50: −log10 of the molar value. Like-named read-outs stand apart in the source and are kept apart here.
Key:
F1F0-ATPase = target: T1, F1F0-ATPase (Bos taurus, UniProt P13621); test: Inhibition of F1F0-ATPase activity in synthesizing ATP; type: biochemical; details: inhibition of ATP synthesis by F1F0-ATPase; read-out: ATP Syn IC50
T1 construct: from tissue

Ramos cells = test: Cytotoxicity in Ramos cells; type: cell-based; details: cytotoxicity in Ramos cells, read-out: Ramos Cell EC50

CC(C)CNC(=NC(=O)c1cccc(C#N)c1)Nc1cc(-c2ccc(Cl)cc2)n[nH]1 [Compound A-303]
pIC50 (F1F0-ATPase): > 5.00 | pEC50 (Ramos cells; Homo sapiens): > 5.00

CCC(C)N/C(=N/C(=O)c1cccc(S(C)(=O)=O)c1)Nc1cc(-c2ccc(F)cc2)n[nH]1 (stereo not drawn) [Compound A-430]
pIC50 (F1F0-ATPase): > 5.00 | pEC50 (Ramos cells): > 5.00

COc1cccc(C(=O)/N=C(/Nc2cc(F)cc(Cl)c2)Nc2cc(-c3ccc(Cl)cc3)[nH]n2)c1 [Compound A-168]
pIC50 (F1F0-ATPase): > 5.00 | pEC50 (Ramos cells): > 5.00

COc1ccc(C(=O)/N=C(\Nc2cc(-c3ccc(F)cc3)n[nH]2)NC(C)C)c(F)c1 [Compound A-374]
pIC50 (F1F0-ATPase): > 5.00 | pEC50 (Ramos cells): > 5.00

CC(C)CCNC(=NC(=O)c1ccc(Cl)c(F)c1)Nc1cc(-c2cc(F)cc(F)c2)n[nH]1 [Compound A-349]
pIC50 (F1F0-ATPase): > 5.00 | pEC50 (Ramos cells; Homo sapiens): > 5.00

O=C(/N=C(\Nc1cc(-c2cc(F)cc(Cl)c2)n[nH]1)NC1CCCC1)c1ccc(F)c(F)c1 [Compound A-289]
pIC50 (F1F0-ATPase): > 5.00 | pEC50 (Ramos cells): > 5.00

COc1cccc(CNC(=NC(=O)c2ccc(Cl)cc2)Nc2cc(-c3ccc(F)cc3)n[nH]2)c1 [Compound A-400]
pIC50 (F1F0-ATPase): > 5.00 | pEC50 (Ramos cells; Homo sapiens): > 5.00

Cc1ccc(-c2cc(NC(=NC(=O)c3ccc(C(F)(F)F)cc3)NCc3ccc(F)cc3Cl)[nH]n2)cc1F [Compound A-327]
pIC50 (F1F0-ATPase): < 5.00 | pEC50 (Ramos cells; Homo sapiens): < 5.00

O=C(/N=C(/NCc1ccc(F)cc1Cl)Nc1cc(-c2cccc(Cl)c2)n[nH]1)c1ccc(Cl)c(F)c1 [Compound A-472]
pIC50 (F1F0-ATPase): > 5.00 | pEC50 (Ramos cells): < 5.00

N#Cc1cccc(C(=O)/N=C(\Nc2cc(-c3ccc(F)cc3)n[nH]2)NC2CCC(F)(F)CC2)c1 [Compound A-502]
pIC50 (F1F0-ATPase): > 5.00 | pEC50 (Ramos cells): > 5.00

O=C(/N=C(/Nc1cc(F)cc(Cl)c1)Nc1cc(-c2ccccc2)[nH]n1)c1ccc(C(F)(F)F)cc1 [Compound A-151]
pIC50 (F1F0-ATPase): > 5.00 | pEC50 (Ramos cells): < 5.00

COc1cccc(C(=O)N=C(Nc2cc(-c3ccc(F)cc3)n[nH]2)NC(C)(C)C)c1 [Compound A-540]
pIC50 (F1F0-ATPase): > 5.00 | pEC50 (Ramos cells; Homo sapiens): > 5.00

CC(C)(C)N/C(=N/C(=O)c1cccc(Cl)c1)Nc1cc(-c2cccc(Cl)c2)[nH]n1 [Compound A-129]
pIC50 (F1F0-ATPase): > 5.00 | pEC50 (Ramos cells): > 5.00

CC(C)N/C(=N/C(=O)c1ccc(F)c(F)c1)Nc1cc(C(F)(F)F)n[nH]1 [Compound A-98]
pIC50 (F1F0-ATPase): > 5.00 | pEC50 (Ramos cells; Homo sapiens): > 5.00

O=C(/N=C(\Nc1cc(C(F)(F)F)[nH]n1)NC1CCCC1)c1ccccc1 [Compound A-545]
pIC50 (F1F0-ATPase): > 5.00 | pEC50 (Ramos cells): > 5.00

CC(N/C(=N\C(=O)c1ccc(C(F)(F)F)cc1)Nc1cc(C(F)(F)F)n[nH]1)c1cccc(Cl)c1 (stereo not drawn) [Compound A-89]
pIC50 (F1F0-ATPase): > 5.00 | pEC50 (Ramos cells; Homo sapiens): > 5.00

O=C(/N=C(/NCC(F)(F)F)Nc1cc(C(F)(F)F)[nH]n1)c1ccc(C(F)(F)F)cc1 [Compound A-1]
pIC50 (F1F0-ATPase): > 5.00 | pEC50 (Ramos cells; Homo sapiens): > 5.00

CCOCCCN/C(=N/C(=O)c1ccc(C(F)(F)F)cc1)Nc1cc(C)[nH]n1 [Compound A-184]
pIC50 (F1F0-ATPase): < 5.00 | pEC50 (Ramos cells): < 5.00

O=C(/N=C(\Nc1cc(C(F)(F)F)[nH]n1)NC1CCCC1)c1ccc(Cl)cc1 [Compound A-122]
pIC50 (F1F0-ATPase): > 5.00 | pEC50 (Ramos cells; Homo sapiens): > 5.00

CC(C)CN/C(=N/C(=O)c1ccc(F)cc1)Nc1cc(-c2ccc(Cl)cc2)n[nH]1 [Compound A-254]
pIC50 (F1F0-ATPase): > 5.00 | pEC50 (Ramos cells): > 5.00

COc1ccc(-c2cc(NC(=NC(=O)c3ccc(Cl)c(F)c3)NC3CCOCC3)n[nH]2)cc1 [Compound A-462]
pIC50 (F1F0-ATPase): < 5.00 | pEC50 (Ramos cells; Homo sapiens): < 5.00

CCOCCCN/C(=N/C(=O)c1ccc(F)c(F)c1)Nc1cc(-c2ccc(Cl)cc2)n[nH]1 [Compound A-277]
pIC50 (F1F0-ATPase): > 5.00 | pEC50 (Ramos cells): < 5.00

O=C(/N=C(/NCc1ccc(F)c(Cl)c1)Nc1cc(C(F)(F)F)[nH]n1)c1ccc(Cl)c(F)c1 [Compound A-3]
pIC50 (F1F0-ATPase): > 5.00 | pEC50 (Ramos cells; Homo sapiens): > 5.00

CC(C)(C)NC(=NC(=O)c1cccc(O)c1)Nc1cc(-c2ccc(F)cc2)n[nH]1 [Compound A-525]
pIC50 (F1F0-ATPase): > 5.00 | pEC50 (Ramos cells; Homo sapiens): > 5.00
